Laboratory results published in patent US20240180948A1, “4'-HALOGEN CONTAINING NUCLEOTIDE AND NUCLEOSIDE THERAPEUTIC COMPOSITIONS AND USES RELATED THERETO” (priority 2018, published 2024).

How the values were obtained:
Plasma stability, human = details: both
Plasma stability, mouse = details: male, CD-1, mouse
[1] = Liver microsome stability, human; details: both, liver microsomes, pH 7.4
[2] = Liver microsome stability, rat; details: male, Sprague-Dawley, liver microsomes, pH 7.4
Plasma stability, rat = details: male, Sprague-Dawley
[3] = Liver microsome stability, mouse; details: male, CD-1, mouse, liver microsomes, pH 7.4
[4] = Mouse plasma PK, single dose PO or IP; details: female, ICR (CD-1)

Compound | half-life at 1 μM (Plasma stability, human) [min] | half-life at 1 μM (Plasma stability, mouse) [min] | half-life at 1 μM [1] [min] | half-life at 1 μM [2] [min] | half-life at 1 μM (Plasma stability, rat) [min] | half-life at 1 μM [3] [min] | AUC(0-inf) ([4]; ip, 10 mg/kg) [µM·h] | half-life ([4]; ip, 10 mg/kg) [min] | AUC(0-inf) ([4]; po, 50 mg/kg) [µM·h] | bioavailability ([4]; po, 50 mg/kg) [%] | half-life ([4]; po, 50 mg/kg) [min] | AUC(0-inf) ([4]; po, 150 mg/kg) [µM·h] | bioavailability ([4]; po, 150 mg/kg) [%] | half-life ([4]; po, 150 mg/kg) [min] | AUC(0-inf) ([4]; po, 500 mg/kg) [µM·h] | bioavailability ([4]; po, 500 mg/kg) [%] | half-life ([4]; po, 500 mg/kg) [min]
CC(C)C(=O)OC[C@@]1(F)O[C@@H](n2ccc(=O)[nH]c2=O)[C@H](OC(=O)C(C)C)[C@@H]1OC(=O)C(C)C [EIDD-2954, [(2S,3S,4R,5R)-5-(2,4-dioxopyrimidin-1-yl)-2-fluoro-3,4-bis(2-methylpropanoyloxy)tetrahydrofuran-2-yl]methyl 2-methylpropanoate] | 2 | 1 | < 1 | < 1 | 1 | < 1 | – | – | – | – | – | – | – | – | – | – | –
CC(C)C(=O)OC[C@@]1(F)OC(n2ccc(=O)[nH]c2=O)C(O)[C@@H]1O (stereo partly drawn) [EIDD-2947, [(2S,3S)-5-(2,4-dioxopyrimidin-1-yl)-2-fluoro-3,4-dihydroxy-tetrahydrofuran-2-yl]methyl 2-methylpropanoate] | 2 | 1 | – | 10 | 9 | 1 | – | – | – | – | – | – | – | – | – | – | –
CC(C)[C@H](N)C(=O)OC[C@@]1(F)O[C@@H](n2ccc(=O)[nH]c2=O)[C@H](O)[C@@H]1O.Cl [EIDD-2971, [(1S)-1-[[(2S,3S,4R,5R)-5-(2,4-dioxopyrimidin-1-yl)-2-fluoro-3,4-dihydroxy-tetrahydrofuran-2-yl]methoxycarbonyl]-2-methyl-propyl]ammonium chloride] | 81 | 59 | 38 | 33 | 50 | 11 | – | – | – | – | – | – | – | – | – | – | –
O=c1ccn([C@@H]2O[C@](F)(CO)[C@@H](O)[C@H]2O)c(=O)[nH]1 [EIDD-02749, 1-[(2R,3R,4S,5S)-5-fluoro-3,4-dihydroxy-5-(hydroxymethyl)tetrahydrofuran-2-yl]pyrimidine-2,4-dione] | 26 | 37 | 22 | 25 | 22 | 27 | 19.6 | 378 | 232 | 236 | 498 | 392 | 133 | 510 | 755 | 77 | 774
